In PubChem BioAssay (NCI):
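Exposure lasted 48 hours, with cells grown in 96-well plates and compounds tested at five concentrations. TGI: total growth inhibition.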

What was measured:
Assay in all cases: inhibition of tumour cell growth, NCI panel, 48 h
[1] = system: MALME-3M melanoma
[2] = system: SN12C renal
[3] = system: T-47D breast
[4] = system: NCI-H226 lung
[5] = system: A498 renal
[6] = system: SK-OV-3 ovarian
[7] = system: KM12 colon
[8] = system: HS 578T breast
[9] = system: MDA-N
[10] = system: SF-295 CNS
[11] = system: ACHN renal
[12] = system: SF-539 CNS
[13] = system: EKVX NSCLC
[14] = system: M14 melanoma
[15] = system: NCI-H23 lung
[16] = system: SR leukemia
[17] = system: NCI-H522 lung
[18] = system: COLO 205 colon
[19] = system: OVCAR-4 ovarian
[20] = system: UACC-62 melanoma
[21] = system: OVCAR-3 ovarian
[22] = system: HCT-116 colon
[23] = system: SK-MEL-28 melanoma
[24] = system: SNB-19 CNS
[25] = system: HOP-62 NSCLC
[26] = system: HCT-15 colon
[27] = system: RPMI-8226 leukemia
[28] = system: SK-MEL-2 melanoma
[29] = system: BT-549 breast
[30] = system: MDA-MB-435
[31] = system: U251 CNS
[32] = system: CCRF-CEM leukemia
[33] = system: OVCAR-8 ovarian
[34] = system: SF-268 CNS
[35] = system: MOLT-4 leukemia
[36] = system: A549 NSCLC
[37] = system: UO-31 renal
[38] = system: MDA-MB-231 breast
[39] = system: K-562 leukemia
[40] = system: PC-3 prostate
[41] = system: TK-10 renal
[42] = system: SK-MEL-5 melanoma
[43] = system: HT29 colon
[44] = system: IGROV1 ovarian
[45] = system: RXF 393 renal
[46] = system: SW-620 colon
[47] = system: MCF7 breast
[48] = system: NCI-H460 lung
[49] = system: HOP-92 NSCLC
[50] = system: NCI/ADR-RES ovarian
[51] = system: CAKI-1 renal
[52] = system: UACC-257 melanoma
[53] = system: OVCAR-5 ovarian
[54] = system: DU-145 prostate
[55] = system: 786-0 renal
[56] = system: HCC-2998 colon
[57] = system: HL-60(TB) leukemia
[58] = system: SNB-75 CNS
[59] = system: LOX IMVI melanoma

Measured: TGI

Cc1ccc(/C=N\NC(=O)c2ccncc2)s1
not listed: [58] | [59]
> 100 µM: all other assays above

COc1cc2c3c(c1OC)C1(C=CC(=O)C=C1)CC3NCC2 (stereo not given)
not listed: [37]
> 100 µM: all other assays above
